Measured values reported in US10183943B2, “Heterocyclic compounds and their use in preventing or treating bacterial infections” (MUTABILIS, priority 2015, dated 2019).
Read-outs that look alike come from different tables or passages of the source.

Assays:
[1] = target: T1, TEM-1 (Escherichia coli, UniProt P62593); assay: β-lactamase inhibitory activity, determination of IC50 (nitrocefin hydrolysis); format: biochemical
T1 construct: made in house; host or cells: E. coli

[2] = target: T2, SHV-1 (Klebsiella pneumoniae, UniProt P0AD64); assay: as above; format: biochemical
T2 construct: made in house; host or cells: E. coli
T2 sequence (P0AD64 22-286): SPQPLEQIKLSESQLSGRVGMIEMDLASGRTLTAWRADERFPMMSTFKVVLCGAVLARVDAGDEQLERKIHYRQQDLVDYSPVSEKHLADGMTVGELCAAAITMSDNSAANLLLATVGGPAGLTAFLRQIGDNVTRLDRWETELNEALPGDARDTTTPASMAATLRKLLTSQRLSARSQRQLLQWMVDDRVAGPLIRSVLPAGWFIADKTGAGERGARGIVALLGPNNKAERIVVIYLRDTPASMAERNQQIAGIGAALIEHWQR

[3] = target: T3, CTX-M-15 (Escherichia coli, UniProt Q9EXV5); assay: as above; format: biochemical; conditions: class (A); nitrocefin 200 μM, 30 min pre-incubation; read-out: IC50 β-lactamase CTX-M-15
T3 construct: made in house; host or cells: E. coli
T3 sequence (Q9EXV5 entry or part of it): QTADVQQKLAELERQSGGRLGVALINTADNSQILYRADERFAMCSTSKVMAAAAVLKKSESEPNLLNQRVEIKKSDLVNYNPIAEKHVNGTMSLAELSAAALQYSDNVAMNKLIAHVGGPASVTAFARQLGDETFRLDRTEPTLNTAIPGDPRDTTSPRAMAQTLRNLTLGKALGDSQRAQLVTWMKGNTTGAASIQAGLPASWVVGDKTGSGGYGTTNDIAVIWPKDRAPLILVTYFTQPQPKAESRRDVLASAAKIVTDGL

[4] = target: T4, KPC-2 (Klebsiella pneumoniae, UniProt Q9F663); assay: as above; format: biochemical; conditions: class (A); nitrocefin 200 μM, 30 min pre-incubation; read-out: IC50 β-lactamase KPC-2
T4 construct: made in house; host or cells: E. coli
T4 sequence (Q9F663 25-293 limits assumed): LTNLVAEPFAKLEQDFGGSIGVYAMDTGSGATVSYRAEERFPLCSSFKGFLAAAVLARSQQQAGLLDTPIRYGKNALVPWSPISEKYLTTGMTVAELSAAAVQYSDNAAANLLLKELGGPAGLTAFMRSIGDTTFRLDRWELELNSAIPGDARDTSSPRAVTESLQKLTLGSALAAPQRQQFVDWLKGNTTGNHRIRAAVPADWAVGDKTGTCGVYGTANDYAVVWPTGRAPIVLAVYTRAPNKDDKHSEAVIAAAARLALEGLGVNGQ

[5] = target: CMY-37 (Citrobacter freundii); assay: as above; format: biochemical; conditions: class (C); nitrocefin 200 μM, 30 min pre-incubation
Chain of CMY-37 (Citrobacter freundii) (A0A9R8 21-381): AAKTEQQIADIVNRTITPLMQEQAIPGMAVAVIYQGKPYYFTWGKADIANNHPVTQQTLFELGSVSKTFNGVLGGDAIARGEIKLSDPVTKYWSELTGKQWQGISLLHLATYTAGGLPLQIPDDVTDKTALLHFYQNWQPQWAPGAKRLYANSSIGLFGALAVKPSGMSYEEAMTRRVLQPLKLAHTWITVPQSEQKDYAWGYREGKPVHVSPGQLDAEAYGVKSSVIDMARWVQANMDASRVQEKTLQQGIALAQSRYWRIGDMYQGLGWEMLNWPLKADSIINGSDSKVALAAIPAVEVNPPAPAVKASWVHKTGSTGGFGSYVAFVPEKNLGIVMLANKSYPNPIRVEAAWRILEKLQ

[6] = target: T5, OXA-1 (Escherichia coli, UniProt P13661); assay: as above; format: biochemical; conditions: class (D); nitrocefin 200 μM, 30 min pre-incubation; read-out: IC50 β-lactamase OXA-1
T5 construct: made in house; host or cells: E. coli
T5 sequence (P13661 26-276): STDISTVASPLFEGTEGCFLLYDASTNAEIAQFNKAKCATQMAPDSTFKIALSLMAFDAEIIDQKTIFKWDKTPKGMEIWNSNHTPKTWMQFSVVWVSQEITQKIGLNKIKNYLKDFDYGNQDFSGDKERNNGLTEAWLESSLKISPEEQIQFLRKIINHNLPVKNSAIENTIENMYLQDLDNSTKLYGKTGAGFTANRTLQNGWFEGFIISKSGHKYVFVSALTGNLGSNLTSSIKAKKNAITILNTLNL

[7] = target: T6, OXA-11 (Pseudomonas aeruginosa, UniProt Q06778); assay: as above; format: biochemical
T6 construct: made in house; host or cells: E. coli
T6 sequence (Q06778 21-266): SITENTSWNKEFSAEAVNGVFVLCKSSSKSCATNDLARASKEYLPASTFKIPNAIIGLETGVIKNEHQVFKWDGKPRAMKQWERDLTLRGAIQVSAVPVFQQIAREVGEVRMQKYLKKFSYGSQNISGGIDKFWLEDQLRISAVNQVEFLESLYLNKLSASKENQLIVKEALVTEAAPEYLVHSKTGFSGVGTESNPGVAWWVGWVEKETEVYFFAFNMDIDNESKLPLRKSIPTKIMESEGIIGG

[8] = target: T7, OXA-15 (Pseudomonas aeruginosa, UniProt Q51574); assay: biochemical
T7 construct: made in house; host or cells: E. coli
T7 sequence (Q51574 22-275): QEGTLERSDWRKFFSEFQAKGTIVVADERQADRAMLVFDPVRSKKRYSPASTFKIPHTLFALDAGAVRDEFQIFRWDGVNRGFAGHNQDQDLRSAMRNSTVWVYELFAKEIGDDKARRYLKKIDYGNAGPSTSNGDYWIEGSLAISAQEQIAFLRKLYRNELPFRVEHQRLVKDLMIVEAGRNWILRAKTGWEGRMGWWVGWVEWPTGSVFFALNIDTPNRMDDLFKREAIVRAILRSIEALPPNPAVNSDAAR

[9] = target: T8, OXA-48 (Klebsiella pneumoniae, UniProt Q6XEC0); assay: β-lactamase inhibitory activity, determination of IC50 (nitrocefin hydrolysis); format: biochemical; conditions: class (D); nitrocefin 200 μM, 30 min pre-incubation; read-out: IC50 β-lactamase OXA-48
T8 construct: made in house; host or cells: E. coli
T8 sequence (Q6XEC0 23-265 limits assumed): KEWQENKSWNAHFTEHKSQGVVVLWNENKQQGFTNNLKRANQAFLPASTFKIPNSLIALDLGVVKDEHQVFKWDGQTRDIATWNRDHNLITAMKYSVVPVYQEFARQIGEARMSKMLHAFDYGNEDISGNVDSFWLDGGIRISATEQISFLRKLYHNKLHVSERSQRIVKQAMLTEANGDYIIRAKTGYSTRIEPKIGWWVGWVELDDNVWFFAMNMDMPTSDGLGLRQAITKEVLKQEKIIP

[10] = test system: E. cloacae P99 (AmpC); assay: MIC of compounds alone, broth microdilution; format: cell-based; conditions: strain P99 (E. cloacae)
Outline: (§1)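 Each compound, tested on its own, is serially diluted against a 5×10^5 cfu/mL log-phase suspension in cation-adjusted Mueller-Hinton broth following CLSI M7-A7. After 16-20 h at 35° C in air, the lowest concentration showing no visible growth gives the MIC.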

[11] = test system: E. coli 131119 (TEM-1, OXA-48); assay: MIC of compounds alone, broth microdilution; format: cell-based; conditions: strain 131119 (E. coli)
Outline: as §1

[12] = test system: E. coli 190317 (TEM-1, SHV-12, CTX-M-15, OXA-1); assay: MIC of compounds alone, broth microdilution; format: cell-based; conditions: strain 190317 (E. coli)
Outline: as §1

[13] = test system: E. coli RGN238 (OXA-1); assay: MIC of compounds alone, broth microdilution; format: cell-based; conditions: strain RGN238 (E. coli)
Outline: as §1

[14] = test system: K. pneumoniae 6299 (TEM-1, SHV-11, OXA-163); assay: MIC of compounds alone, broth microdilution; format: cell-based; conditions: strain 6299 (K. pneumoniae)
Outline: as §1

[15] = test system: K. pneumoniae BAA-1898 (TEM-1, SHV-11, SHV-12, KPC-2); assay: MIC of compounds alone, broth microdilution; format: cell-based; conditions: strain BAA-1898 (K. pneumoniae)
Outline: as §1

[16] = test system: P. aeruginosa CIP107051 (TEM-24); assay: MIC of compounds alone, broth microdilution; format: cell-based; conditions: strain CIP107051 (P. aeruginosa)
Outline: as §1

[17] = test system: E. cloacae P99 (AmpC); assay: MIC of ceftazidime (CAZ) in combination with compounds at 4 μg/mL, broth microdilution; format: cell-based; conditions: strain P99; MIC of CAZ with compound fixed at 4 μg/mL
Experimental: (§2) Method 2: MIC of Compounds and Synergy with Ceftazidime Against Bacterial Isolates (Table 2 and 3)
(§3) Compounds of the present invention were assessed against genotyped bacterial strains alone or in combination with the β-lactam ceftazidime (CAZ). In the assays, MICs of said compounds, or of ceftazidime at fixed concentrations of said compounds were determined by the broth microdilution method according to the Clinical Laboratory Standards Institute (CLSI-M7-A7). Briefly, compounds alone according to the invention were prepared in DMSO and spotted (2 μL each) on sterile polystyrene plates (Corning, 3788). Compounds and ceftazidime dilutions were prepared in DMSO and spotted (1 μL each) on sterile polystyrene plates (Corning, 3788). Log phase bacterial suspensions were adjusted to a final density of 5×10^5 cfu/mL in cation-adjusted Mueller-Hinton broth (Becton-Dickinson) and added to each well (98 μL). Microplates were incubated for 16-20 h at 35° C. in ambient air. The MIC of the compounds was defined as the lowest concentration of said compounds that prevented bacterial growth as read by visual inspection. The MIC of ceftazidime at each compound concentration was defined as the lowest concentration of ceftazidime that prevented bacterial growth as read by visual inspection.

[18] = test system: K. pneumoniae 6299 (TEM-1, SHV-11, OXA-163); assay: as above; format: cell-based; conditions: strain 6299; MIC of CAZ with compound fixed at 4 μg/mL
Experimental: as §2, §3

[19] = test system: K. pneumoniae BAA-1898 (TEM-1, SHV-11, SHV-12, KPC-2); assay: as above; format: cell-based; conditions: strain BAA-1898; MIC of CAZ with compound fixed at 4 μg/mL
Experimental: as §2, §3

[20] = test system: P. aeruginosa CIP107051 (TEM-24); assay: as above; format: cell-based; conditions: strain CIP107051; MIC of CAZ with compound fixed at 4 μg/mL
Experimental: as §2, §3

[21] = test system: E. coli 190317 (TEM-1, SHV-12, CTX-M-15, OXA-1); assay: microbe, parasite or virus in culture; format: cell-based; conditions: strain 190317; MIC of CAZ with compound fixed at 4 μg/mL
Experimental: as §2, §3

[22] = target: AmpC (P99) (Enterobacter cloacae, UniProt P05364); assay: β-lactamase inhibitory activity, determination of IC50 (nitrocefin hydrolysis)
Chain of AmpC (P99) (P05364 21-381): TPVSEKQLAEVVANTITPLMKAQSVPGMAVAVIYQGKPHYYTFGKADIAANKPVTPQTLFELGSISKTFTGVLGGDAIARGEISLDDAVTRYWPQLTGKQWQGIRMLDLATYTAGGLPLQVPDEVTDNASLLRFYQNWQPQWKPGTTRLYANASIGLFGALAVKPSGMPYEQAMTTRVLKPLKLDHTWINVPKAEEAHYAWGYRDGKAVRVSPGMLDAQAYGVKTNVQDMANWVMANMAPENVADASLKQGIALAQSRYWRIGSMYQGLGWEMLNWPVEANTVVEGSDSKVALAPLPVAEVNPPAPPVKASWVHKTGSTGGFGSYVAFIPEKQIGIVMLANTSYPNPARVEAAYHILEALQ

[23] = target: AmpC P. aeruginosa (Pseudomonas aeruginosa, UniProt P24735); assay: as above
Chain of AmpC P. aeruginosa (P24735 27-397): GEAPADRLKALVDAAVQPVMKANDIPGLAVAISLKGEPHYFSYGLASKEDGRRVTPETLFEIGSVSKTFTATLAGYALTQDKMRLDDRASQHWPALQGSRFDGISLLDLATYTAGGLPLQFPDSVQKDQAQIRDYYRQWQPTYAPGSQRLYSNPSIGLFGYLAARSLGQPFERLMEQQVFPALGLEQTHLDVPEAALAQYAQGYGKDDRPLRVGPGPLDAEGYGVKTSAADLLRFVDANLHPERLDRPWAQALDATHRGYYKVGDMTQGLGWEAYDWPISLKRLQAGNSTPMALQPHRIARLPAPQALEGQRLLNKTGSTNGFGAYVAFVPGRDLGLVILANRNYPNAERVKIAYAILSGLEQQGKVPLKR

[24] = test system: E. cloacae 260508 (TEM-1, CTX-M-15); assay: MIC of compounds alone, broth microdilution; format: cell-based; conditions: Enterobacter cloacae, read-out: MIC compounds of the invention alone
Outline: as §1

[25] = test system: E. cloacae UFR51 (SHV-12, IMP-8); assay: MIC of compounds alone, broth microdilution; format: cell-based; conditions: Enterobacter cloacae; strain UFR51 (E. cloacae); read-out: MIC compounds of the invention alone
Outline: as §1

[26] = test system: E. cloacae UFR85 (TEM-1, CTX-M-15, AmpC); assay: MIC of compounds alone, broth microdilution; format: cell-based; conditions: Enterobacter cloacae, read-out: MIC compounds of the invention alone
Outline: as §1

[27] = test system: E. coli UFR18 (CTX-M-15, OXA-204); assay: MIC of compounds alone, broth microdilution; format: cell-based; conditions: Escherichia coli; strain UFR18 (E. coli); read-out: MIC compounds of the invention alone
Outline: as §1

[28] = test system: E. coli UFR32 (TEM-1, VEB-1, OXA-10); assay: MIC of compounds alone, broth microdilution; format: cell-based; conditions: Escherichia coli; strain UFR32 (E. coli); read-out: MIC compounds of the invention alone
Outline: as §1

[29] = test system: E. coli UFR61O (TEM-1, KPC-2); assay: MIC of compounds alone, broth microdilution; format: cell-based; conditions: Escherichia coli; strain UFR61O (E. coli); read-out: MIC compounds of the invention alone
Outline: as §1

[30] = test system: E. coli UFR74 (SHV-1, DHA-1); assay: MIC of compounds alone, broth microdilution; format: cell-based; conditions: Escherichia coli; strain UFR74 (E. coli); read-out: MIC compounds of the invention alone
Outline: as §1

[31] = test system: K. oxytoca UFR21 (TEM-1, CTX-M-15, OXA-48); assay: MIC of compounds alone, broth microdilution; format: cell-based; conditions: Klebsiella oxytoca, read-out: MIC compounds of the invention alone
Outline: as §1

[32] = test system: K. pneumoniae UFR24 (TEM-1, SHV-2, SHV-11, OXA-1, OXA-48, OXA-47); assay: MIC of compounds alone, broth microdilution; format: cell-based; conditions: Klebsiella pneumoniae; strain UFR24 (K. pneumoniae); read-out: MIC compounds of the invention alone
Outline: as §1

[33] = test system: K. pneumoniae UFR39 (CTX-M-15, NDM-1); assay: MIC of compounds alone, broth microdilution; format: cell-based; conditions: Klebsiella pneumoniae; strain UFR39 (K. pneumoniae); read-out: MIC compounds of the invention alone
Outline: as §1

[34] = test system: K. pneumoniae UFR77 (CMY-2); assay: MIC of compounds alone, broth microdilution; format: cell-based; conditions: Klebsiella pneumoniae; strain UFR77 (K. pneumoniae); read-out: MIC compounds of the invention alone
Outline: as §1

[35] = test system: E. cloacae UFR51 (SHV-12, IMP-8); assay: MIC of ceftazidime (CAZ) in combination with compounds at 4 μg/mL, broth microdilution; format: cell-based; conditions: strain UFR51; MIC of CAZ with compound fixed at 4 μg/mL
Experimental: as §2, §3

[36] = test system: E. coli UFR41 (TEM-1, CTX-M-15, CMY-2, OXA-1, NDM-4); assay: as above; format: cell-based; conditions: strain UFR41; MIC of CAZ with compound fixed at 4 μg/mL
Experimental: as §2, §3

[37] = Escherichia coli, read-out: MIC compounds of the invention alone

T1 sequence (P62593 24-286 limits assumed): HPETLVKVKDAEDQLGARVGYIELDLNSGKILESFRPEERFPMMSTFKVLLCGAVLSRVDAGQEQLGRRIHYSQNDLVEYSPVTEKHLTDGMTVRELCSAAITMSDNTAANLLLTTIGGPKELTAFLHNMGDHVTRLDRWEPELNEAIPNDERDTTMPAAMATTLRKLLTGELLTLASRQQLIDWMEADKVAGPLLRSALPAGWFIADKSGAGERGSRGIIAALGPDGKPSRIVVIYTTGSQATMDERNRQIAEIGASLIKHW

## COC(=O)c1ncsc1C1=CCN2CC1N(OS(=O)(=O)[O-])C2=O.[Na+] (stereo not shown) [Example 22, Sodium [4-(4-(2-methoxy-2-oxo-methyl)-thiazol-5-yl)-7-oxo-1,6-diazabicyclo[3.2.1]oct-3-en-6-yl] sulfate]
[1]; class (A), nitrocefin 200 μM, 30 min pre-incubation, read-out: IC50 β-lactamase TEM-1
  IC50: 5 nM
[2]; class (A), nitrocefin 200 μM, 30 min pre-incubation, read-out: IC50 β-lactamase SHV-1
  IC50: 19 nM
[3]
  IC50: 6.5 nM
[4]
  IC50: 340 nM
[5]
  IC50: 84 nM
[6]
  IC50: 68 nM
[7]; class (D), nitrocefin 200 μM, 30 min pre-incubation, read-out: IC50 β-lactamase OXA-11
  IC50: 370 nM
[8]; class (D), nitrocefin 200 μM, 30 min pre-incubation, read-out: IC50 β-lactamase OXA-15
  IC50: 12 nM
[9]
  IC50: 3.9 nM
[10]
  MIC compounds of the invention alone: >32 µg/mL
[11]
  MIC compounds of the invention alone: >32 µg/mL
[12]
  MIC compounds of the invention alone: >32 µg/mL
[13]
  MIC compounds of the invention alone: >32 µg/mL
[14]
  MIC compounds of the invention alone: >32 µg/mL
[15]
  MIC compounds of the invention alone: >32 µg/mL
[16]
  MIC compounds of the invention alone: >32 µg/mL
[17]
  MIC combination of CAZ and compounds of the invention at 4 μg/mL: 128 µg/mL
[18]
  MIC combination of CAZ and compounds of the invention at 4 μg/mL: 128 µg/mL
[19]
  MIC combination of CAZ and compounds of the invention at 4 μg/mL: 128 µg/mL
[20]
  MIC combination of CAZ and compounds of the invention at 4 μg/mL: >128 µg/mL
[21]
  MIC combination of CAZ and compounds of the invention at 4 μg/mL: 16 µg/mL
[22]; read-out: IC50 β-lactamase AmpC (P99), class (C), nitrocefin 200 μM, 30 min pre-incubation
  IC50: 160 nM
[23]; read-out: IC50 β-lactamase AmpC (PAE), class (C), nitrocefin 200 μM, 30 min pre-incubation
  IC50: 5500 nM

## O=C1N2CC(c3cccnc3)=CC(C2)N1OS(=O)(=O)[O-].[Na+] (stereo not shown) [Example 41, Sodium [3-(3-pyridyl)-7-oxo-1,6-diazabicyclo[3.2.1]oct-3-en-6-yl]sulfate]
[1]
  IC50: 1.8 nM
[2]
  IC50: 3.6 nM
[3]
  IC50: 2.6 nM
[4]
  IC50: 9 nM
[6]
  IC50: 1400 nM
[7]
  IC50: 840 nM
[8]
  IC50: 150 nM
[9]
  IC50: 1.4 nM
[24]
  MIC: 16 µg/mL
[10]; Enterobacter cloacae, read-out: MIC compounds of the invention alone
  MIC: 8 µg/mL
[25]
  MIC: 4 µg/mL
[26]
  MIC: 16 µg/mL
[11]; [37]
  MIC: 4 µg/mL
[13]; [37]
  MIC: 32 µg/mL
[27]
  MIC: 4 µg/mL
[28]
  MIC: 8 µg/mL
[29]
  MIC: 16 µg/mL
[30]
  MIC: 16 µg/mL
[31]
  MIC: 16 µg/mL
[14]; Klebsiella pneumoniae, read-out: MIC compounds of the invention alone
  MIC: 16 µg/mL
[15]; Klebsiella pneumoniae, BAA1898, read-out: MIC compounds of the invention alone
  MIC: 8 µg/mL
[32]
  MIC: 16 µg/mL
[33]
  MIC: 4 µg/mL
[34]
  MIC: 8 µg/mL
[16]; Pseudomonas aeruginosa, read-out: MIC compounds of the invention alone
  MIC: > 32 µg/mL
[35]
  MIC combination of CAZ and compounds of the invention at 4 μg/mL: <0.25 µg/mL
[36]
  MIC combination of CAZ and compounds of the invention at 4 μg/mL: <0.25 µg/mL
[22]
  IC50: 40 nM
[23]
  IC50: 190 nM
